Patent publication US10689362B2, “Quinoxaline compounds as type III receptor tyrosine kinase inhibitors” (Development Center for Biotechnology, priority 2016, dated 2020)

Assays:
[1] = tested on: THP-1 human acute monocytic leukemia cell harboring NRAS G12D mutation; assay: THP-1 cell proliferation assay (counter screen, CellTiter-96); assay type: cell-based; details: Cytotoxicity, THP-1 cells (counter screen), 72 hours
Experimental: (§1) Inhibition of cell growth by compounds was measured using CellTiter™-96 assay. The cytotoxicity of compounds was evaluated in CSF-1-dependent M-NFS-60 mouse myeloid leukemia cell, FLT3 signal addicted MV4-11 human acute myeloid leukemia cell with FLT3-ITD mutation, c-KIT signal addicted Kasumi-1 human acute myeloid leukemia cell with c-KIT N822K activating mutation, and THP-1 human acute monocytic leukemia cell harboring NRAS G12D mutation.
THP-1 human acute monocytic leukemia cells harbor NRAS G12D mutation, which renders cell proliferate independently of class III RTKs signal. […] Cells were allowed to expand until reaching saturation at which point they were subcultured or harvested for assay use.
(§2) M-NFS-60, Kasumi-1, MV4-11 and THP-1 cells were seeded into 96-well plates at 2000, 64000, 6500, and 5000 cells/well, respectively, and incubated at 37° C., 5% CO2 overnight. Then, these seeded cells were treated with increasing concentrations of the test compounds and incubated for another 72 hours. At the end of the incubation, CellTiter96® AQueous One Solution Reagent (Promega) was added and incubated for 4 hours. Cell viability was determined by measuring absorbance at 490 nm using EMax® microplate reader (Molecular Devices).

[2] = tested on: MV4-11 human acute myeloid leukemia cell with FLT3-ITD mutation; assay: MV4-11 cell proliferation assay (CellTiter-96); assay type: cell-based; details: Cytotoxicity, MV4-11 cells, 72 hours
Experimental: as §1
(§3) The compounds disclosed herein were tested in MV4-11 cell proliferation assay to determine their cellular potency against FLT3 kinase. MV4-11 human acute myeloid leukemia cells harbor ligand-independent FLT3-ITD activating mutation, which render its proliferation FLT3-ITD dependent. Inhibition of FLT3 kinase activity will cause reduced growth and/or cell death. […] Cells were allowed to expand until reaching saturation at which point they were subcultured or harvested for assay use.
as §2

[3] = tested on: CSF-1-dependent M-NFS-60 mouse myeloid leukemia cell; assay: M-NFS-60 cell proliferation assay (CellTiter-96); assay type: cell-based; details: Cytotoxicity, M-NFS-60 cells, 72 hours
Experimental: as §1
The compounds disclosed herein were tested in M-NFS-60 cell proliferation assay to determine their cellular potency against CSF-1R. […] Inhibition of CSF-1R kinase activity will cause reduced growth and/or cell death. […] Cells were allowed to expand until reaching saturation at which point they were subcultured or harvested for assay use.
as §2

[4] = tested on: Kasumi-1 human acute myeloid leukemia cell with c-KIT N822K activating mutation; assay: Kasumi-1 cell proliferation assay (CellTiter-96); assay type: cell-based; details: Cytotoxicity, Kasumi-1 cells, 72 hours
Experimental: as §1
as §3, with “Kasumi” for “MV4-11”, “c-KIT” for “FLT3”, “N822K c-KIT” for “FLT3-ITD”, “thus the cell” for “which render its”, “relied on c-KIT signal.” for “FLT3-ITD dependent.”
as §2

[5] = molecular target: FLT3 kinase (Homo sapiens (Human), UniProt P36888); assay: FLT3 kinase assay (radiometric); assay type: biochemical; details: bound
Sequence of FLT3 kinase (P36888 27-993): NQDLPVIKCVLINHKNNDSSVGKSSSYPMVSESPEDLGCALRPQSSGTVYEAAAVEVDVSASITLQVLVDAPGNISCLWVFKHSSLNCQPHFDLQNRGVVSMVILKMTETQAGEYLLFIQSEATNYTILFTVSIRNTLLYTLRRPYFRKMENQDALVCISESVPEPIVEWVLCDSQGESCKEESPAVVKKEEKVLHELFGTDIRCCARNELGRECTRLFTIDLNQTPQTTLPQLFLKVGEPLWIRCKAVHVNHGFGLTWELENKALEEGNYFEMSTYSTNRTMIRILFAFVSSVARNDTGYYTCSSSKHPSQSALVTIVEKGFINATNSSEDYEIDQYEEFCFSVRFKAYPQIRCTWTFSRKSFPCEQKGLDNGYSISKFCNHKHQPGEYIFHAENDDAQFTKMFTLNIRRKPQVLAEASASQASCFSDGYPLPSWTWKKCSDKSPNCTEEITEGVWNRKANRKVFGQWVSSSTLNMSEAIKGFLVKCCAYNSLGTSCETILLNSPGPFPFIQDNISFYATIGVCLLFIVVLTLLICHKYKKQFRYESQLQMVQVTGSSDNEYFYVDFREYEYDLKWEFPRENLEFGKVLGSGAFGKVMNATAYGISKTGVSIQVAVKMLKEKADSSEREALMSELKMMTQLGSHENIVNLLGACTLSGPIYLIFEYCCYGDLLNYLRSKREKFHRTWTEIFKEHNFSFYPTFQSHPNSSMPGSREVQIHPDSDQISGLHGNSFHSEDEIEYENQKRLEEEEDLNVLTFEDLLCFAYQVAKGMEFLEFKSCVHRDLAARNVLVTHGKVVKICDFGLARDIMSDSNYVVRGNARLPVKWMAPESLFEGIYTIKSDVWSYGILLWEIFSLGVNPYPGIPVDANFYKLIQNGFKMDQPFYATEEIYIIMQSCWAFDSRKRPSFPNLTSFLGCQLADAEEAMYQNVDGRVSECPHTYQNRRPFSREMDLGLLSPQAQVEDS
Experimental: (§4) Inhibition of FLT3 kinase activity by a test compound disclosed herein was estimated by radiometric assay. Standard assay conditions were 5 ng of recombinant FLT3 (Thermo Fisher) with 2 μg of substrate Poly-(Glu 4:Tyr 1) (sigma) in the assay buffer in kinase reaction buffer (10 mM MOPS pH 7.0, 0.21 mM EDTA, 0.5% glycerol, 0.001% Brij-35, 0.01 2-mercaptoehtanol, 1 mg/ml BSA, MgCl2 10 mM, 10 μM ATP, 0.1 μCi per well [^33P]-ATP, in the presence of test compound (diluted in final concentration of 4% DMSO) or DMSO control, with a final volume of 25 μl for 60 minutes at 30° C. The reaction was stopped by adding 5 μl of 3% phosphoric acid solution. Total reaction solution was then harvested onto a filter plate (UniFilter-96 GF/B, PerkinElmer), and washed 20 times for 5 min with dH2O. 30 μl of MicroScint™-20 Cocktail (PerkinElmer) was added to dried plate. The plate was sealed and counted using a TopCount scintillation detector (PerkinElmer). […] The IC50 values of quinoxaline compounds of this invention against FLT3 kinase were determined using the GraphPad Prism 5 software.
(§5) The IC50 values for selected quinoxaline compounds of this invention against CSF-1R, c-KIT, FLT3, and PDGFRβ are summarized in Table 3.

[6] = molecular target: c-KIT kinase (Homo sapiens (Human), UniProt P10721); assay: c-KIT kinase assay (radiometric); assay type: biochemical
Sequence of c-KIT kinase (P10721 26-976): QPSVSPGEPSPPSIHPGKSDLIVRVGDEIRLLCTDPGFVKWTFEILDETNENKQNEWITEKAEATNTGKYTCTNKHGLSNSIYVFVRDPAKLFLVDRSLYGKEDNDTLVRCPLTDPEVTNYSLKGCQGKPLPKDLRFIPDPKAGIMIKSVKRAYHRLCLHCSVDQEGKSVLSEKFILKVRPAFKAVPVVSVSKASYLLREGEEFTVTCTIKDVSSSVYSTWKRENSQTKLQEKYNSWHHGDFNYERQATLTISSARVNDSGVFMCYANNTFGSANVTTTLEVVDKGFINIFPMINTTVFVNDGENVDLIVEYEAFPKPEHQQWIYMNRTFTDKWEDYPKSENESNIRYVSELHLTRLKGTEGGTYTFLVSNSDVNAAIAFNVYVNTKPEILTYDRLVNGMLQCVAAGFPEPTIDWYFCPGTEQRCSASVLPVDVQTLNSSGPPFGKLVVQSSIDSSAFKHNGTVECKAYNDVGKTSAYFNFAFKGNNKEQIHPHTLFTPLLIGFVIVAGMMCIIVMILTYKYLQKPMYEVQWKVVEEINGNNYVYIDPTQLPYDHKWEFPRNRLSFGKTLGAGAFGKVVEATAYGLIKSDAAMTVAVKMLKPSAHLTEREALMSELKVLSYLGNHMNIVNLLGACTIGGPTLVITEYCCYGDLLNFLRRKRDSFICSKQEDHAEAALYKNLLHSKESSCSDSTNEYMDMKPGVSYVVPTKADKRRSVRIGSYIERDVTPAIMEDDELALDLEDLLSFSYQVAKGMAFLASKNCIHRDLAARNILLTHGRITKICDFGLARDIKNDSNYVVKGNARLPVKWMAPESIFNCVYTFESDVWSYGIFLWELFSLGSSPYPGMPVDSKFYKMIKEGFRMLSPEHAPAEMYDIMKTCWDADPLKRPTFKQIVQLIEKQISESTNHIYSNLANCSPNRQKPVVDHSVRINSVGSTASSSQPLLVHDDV
Experimental: as §4, with “of c-KIT” for “of FLT3”, “were 20” for “were 5”, “recombinant c-Kit (SignalChem)” for “recombinant FLT3 (Thermo Fisher)”, “BSA,” for “BSA, MgCl2”, “10 mM MgCl2, 10 mM MnCl2,” for “10 mM,”, “against c-KIT” for “against FLT3”
as §5

[7] = molecular target: PDGFRβ kinase (Homo sapiens (Human), UniProt P09619); assay: PDGFRβ kinase assay (radiometric); assay type: biochemical; details: bound
Sequence of PDGFRβ kinase (P09619 33-1106): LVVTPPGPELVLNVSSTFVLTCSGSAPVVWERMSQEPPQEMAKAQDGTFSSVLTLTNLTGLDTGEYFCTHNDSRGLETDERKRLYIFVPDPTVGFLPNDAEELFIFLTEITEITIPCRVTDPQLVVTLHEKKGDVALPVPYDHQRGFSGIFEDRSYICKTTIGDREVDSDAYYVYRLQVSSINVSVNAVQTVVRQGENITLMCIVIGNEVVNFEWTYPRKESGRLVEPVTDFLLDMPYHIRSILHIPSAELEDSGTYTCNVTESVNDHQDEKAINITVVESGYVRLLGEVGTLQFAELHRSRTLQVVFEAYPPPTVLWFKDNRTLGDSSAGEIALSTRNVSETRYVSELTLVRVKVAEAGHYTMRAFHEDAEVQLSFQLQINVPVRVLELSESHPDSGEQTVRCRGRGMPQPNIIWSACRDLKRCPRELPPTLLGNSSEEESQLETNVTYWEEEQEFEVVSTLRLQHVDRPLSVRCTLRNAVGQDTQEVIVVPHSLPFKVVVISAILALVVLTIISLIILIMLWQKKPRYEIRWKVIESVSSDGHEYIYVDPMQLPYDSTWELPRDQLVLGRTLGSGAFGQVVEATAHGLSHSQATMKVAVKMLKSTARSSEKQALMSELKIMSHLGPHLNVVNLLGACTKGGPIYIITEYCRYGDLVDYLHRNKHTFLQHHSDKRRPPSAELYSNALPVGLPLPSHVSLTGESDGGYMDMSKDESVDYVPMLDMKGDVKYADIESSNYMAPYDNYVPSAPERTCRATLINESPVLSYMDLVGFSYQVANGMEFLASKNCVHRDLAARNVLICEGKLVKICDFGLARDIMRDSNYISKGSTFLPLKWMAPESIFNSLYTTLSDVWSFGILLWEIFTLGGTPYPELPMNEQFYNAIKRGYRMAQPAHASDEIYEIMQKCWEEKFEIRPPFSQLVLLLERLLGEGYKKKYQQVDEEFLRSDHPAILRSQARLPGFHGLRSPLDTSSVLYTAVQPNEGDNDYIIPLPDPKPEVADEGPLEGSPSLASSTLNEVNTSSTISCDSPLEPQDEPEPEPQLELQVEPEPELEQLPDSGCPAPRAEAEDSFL
Experimental: Inhibition of PDGFRβ kinase activity by a test compound disclosed herein was estimated by radiometric assay. Standard assay conditions were 10 ng of recombinant PDGFRβ (SignalChem) with 2 μg of substrate Poly-(Glu 4:Tyr 1) (sigma) in the assay buffer in kinase reaction buffer (10 mM MOPS pH 7.0, 0.21 mM EDTA, 0.5% glycerol, 0.001% Brij-35, 0.01 2-mercaptoehtanol, 1 mg/ml BSA, 10 mM MgCl2, 10 mM MnCl2, 10 μM ATP, 0.1 μCi per well [^33P]-ATP), in the presence of test compound (diluted in final concentration of 4% DMSO) or DMSO control, with a final volume of 25 μl for 60 minutes at 30° C. The reaction was stopped by adding 5 μl of 3% phosphoric acid solution. Total reaction solution was then harvested onto a filter plate (UniFilter-96 GF/B, PerkinElmer), and washed 20 times for 5 min with dH2O. 30 μl of MicroScint™-20 Cocktail (PerkinElmer) was added to dried plate. The plate was sealed and counted using a TopCount scintillation detector (PerkinElmer). […] The IC50 values of quinoxaline compounds of this invention against PDGFRβ kinase were determined using the GraphPad Prism 5 software.
as §5

Row | Structure (SMILES) | IC50 [1] | IC50 [2] | IC50 [3] | IC50 [4] | IC50 [5] | IC50 ([6]; bound) | IC50 [7] | IC50 ([6]; class symbol)
1 | COc1cnc2ccc(Nc3ccc(OCc4cccnc4)c(OC)c3)c(C#N)c2n1 [Example 8, 3-methoxy-6-((3-methoxy-4-(pyridin-3-ylmethoxy)phenyl)amino)quinoxaline-5-carbonitrile] | > 10000 nM | 1000 to 10000 nM | > 10000 nM | > 10000 nM |  |  |  | 
2 | COc1ccc(COc2ccc(Oc3ccc4ncc(OC)nc4c3C#N)cc2OC)cc1 [Example 26, 3-methoxy-6-(3-methoxy-4-((4-methoxybenzyl)oxy)phenoxy)quinoxaline-5-carbonitrile] |  |  |  |  | > 1000 nM | > 1000 nM | > 1000 nM | 
3 | COc1cc(Nc2ccc3ncc(N4CCOCC4)nc3c2C#N)ccc1OCc1cnn(C2CC2)c1 [Example 134, 6-((4-((1-cyclopropyl-1H-pyrazol-4-yl)methoxy)-3-methoxy-phenyl)amino)-3-morpholinoquinoxaline-5-carbonitrile] |  |  |  |  | > 1000 nM |  | > 1000 nM | < 100 nM
4 | CCOc1cc(Oc2ccc3ncc(OC)nc3c2C#N)ccc1OCc1ccc(OC)cc1 [Example 30, 6-(3-ethoxy-4-((4-methoxybenzyl)oxy)phenoxy)-3-methoxyquinoxaline-5-carbonitrile] |  |  |  |  | > 1000 nM | > 1000 nM | > 1000 nM | 
5 | COc1cc(Nc2ccc3ncc(N4CCOCC4)nc3c2C#N)ccc1OCC1(C)COC1 [Example 41, 6-((3-methoxy-4-((3-methyloxetan-3-yl)methoxy)phenyl)amino)-3-morpholinoquinoxaline-5-carbonitrile] | > 10000 nM | 1000 to 10000 nM | > 10000 nM | 1000 to 10000 nM |  |  |  | 
6 | COc1cc(Nc2ccc3ncc(N4CCOCC4)nc3c2C#N)ccc1OCc1ccc(C)nc1 [Example 54, 6-((3-methoxy-4-((6-methylpyridin-3-yl)methoxy)phenyl)amino)-3-morpholinoquinoxaline-5-carbonitrile] |  |  |  |  | > 1000 nM |  | > 1000 nM | < 100 nM
7 | COc1cnc2ccc(Nc3ccc(OCc4cccnc4)nc3)c(C#N)c2n1 [Example 6, 3-methoxy-6-((6-(pyridin-3-ylmethoxy)pyridin-3-yl)amino)quinoxaline-5-carbonitrile] | > 10000 nM | 1000 to 10000 nM | > 10000 nM | > 10000 nM |  |  |  | 
8 | COc1cnc2ccc(Nc3ccc(NCc4ccc(C(F)(F)F)nc4)nc3)c(C#N)c2n1 [Example 1, 3-methoxy-6-((6-(((6-(trifluoromethyl)pyridin-3-yl)methyl)amino)pyridin-3-yl)amino)quinoxaline-5-carbonitrile] | > 10000 nM | 1000 to 10000 nM | > 10000 nM | 1000 to 10000 nM |  |  |  | 
9 | CCOc1cc(Nc2ccc3ncc(N4CCOCC4)nc3c2C#N)ccc1OCc1ccncc1 [Example 47, 6-((3-ethoxy-4-(pyridin-4-ylmethoxy)phenyl)amino)-3-morpholinoquinoxaline-5-carbonitrile] | > 10000 nM | 1000 to 10000 nM | 1000 to 10000 nM | > 10000 nM |  |  |  | 
10 | COc1ccc(COc2ccc(Oc3ccc4ncc(OC)nc4c3C#N)cc2OC)cc1 [Example 10, 3-methoxy-6-(3-methoxy-4-((4-methoxpenzyl)oxy)phenoxy)quinoxaline-5-carbonitrile] |  |  |  |  |  |  | > 1000 nM | 
11 | COc1cc(Nc2ccc3ncc(N4CCOCC4)nc3c2C#N)ccc1OCc1cccnc1 [Example 43, 6-((3-methoxy-4-(pyridin-3-ylmethoxy)phenyl)amino)-3-morpholinoquinoxaline-5-carbonitrile] |  |  |  |  | > 1000 nM |  | > 1000 nM | < 100 nM
12 | COc1cc(Nc2ccc3ncc(N4CCOCC4)nc3c2C#N)ccc1OCC1CCN(C)CC1 [Example 42, 6-((3-methoxy-4-((1-methylpiperidin-4-yl)methoxy)phenyl)amino)-3-morpholinoquinoxaline-5-carbonitrile] | > 10000 nM | 1000 to 10000 nM | 1000 to 10000 nM | 1000 to 10000 nM |  |  |  | 
13 | COc1ccc(CNc2ccc(Nc3ccc4ncc(OC)nc4c3C#N)cc2OC)cc1 [Example 14, 3-methoxy-6-((3-methoxy-4-((4-methoxybenzyl)amino)phenyl)amino)quinoxaline-5-carbonitrile] | > 10000 nM | 1000 to 10000 nM | > 10000 nM | > 10000 nM |  |  |  | 
14 | COc1cnc2ccc(Nc3ccc(OC)c(OC)c3)c(C#N)c2n1 [Example 11, 6-((3,4-dimethoxyphenyl)amino)-3-methoxyquinoxaline-5-carbonitrile] | > 10000 nM | 1000 to 10000 nM | > 10000 nM | 1000 to 10000 nM |  |  |  | 
15 | COc1cc(Nc2ccc3ncc(N4CCOCC4)nc3c2C#N)ccc1OCc1cnc(C)nc1 [Example 128, 6-((3-methoxy-4-((2-methylpyrimidin-5-yl)methoxy)phenyl)amino)-3-morpholinoquinoxaline-5-carbonitrile] |  |  |  |  | > 1000 nM |  | > 1000 nM | 300 to 1000 nM
16 | COc1cc(Nc2ccc3ncc(N4CCOCC4)nc3c2C#N)ccc1OCC1CCCC1 [Example 44, 6-((4-(cyclopentylmethoxy)-3-methoxyphenyl)amino)-3-morpholinoquinoxaline-5-carbonitrile] | > 10000 nM | 1000 to 10000 nM | 1000 to 10000 nM | 1000 to 10000 nM |  |  |  | 
